Paper PMC11123956, “Nobiletin Stimulates Adrenal Hormones and Modulates the Circadian Clock in Mice” (Nutrients, 2024)
pIC50: −log10 of the molar value.

What was measured:
Per2 mRNA = assay: Real-time RT-PCR of Per2 mRNA in peripheral tissues; assay type: in vivo, mice; settings: liver, an hour after treatment
Procedure: Male C57BL/6J mice (7 weeks old) were purchased from Charles River Japan (Kanagawa, Japan) and used for the serum hormone assay and RT-PCR. Male ICR mice were purchased from Tokyo Laboratory Animals Science Co., Ltd. (Tokyo, Japan), and female PERIOD2::LUCIFERASE (PER2::LUC) knock-in mice (ICR background) bred at Waseda University were used for blood glucose measurements and in vivo imaging assays, respectively. The mice were all housed under conditions of controlled temperature (23 °C ± 3 °C), humidity (50% ± 20%), and lighting (lights on from 07:00 to 19:00 at Taisho Pharmaceutical Co., Ltd. or from 08:00 to 20:00 at Waseda University). In the 24 h cycle, Zeitgeber time 0 (ZT0) was designated as the time when the lights were turned on, and ZT12 was designated as the time when the lights were turned off. All the mice were given access to food and tap water ad libitum, and nobiletin (10–100 mg/kg; purchased from FUJIFILM Wako Pure Chemical Corporation, Osaka, Japan) was administered by intraperitoneal (i.p.) injection in the vehicle (10 mL/kg body weight) containing 0.5% carboxymethyl cellulose (CMC). Rolipram (PDE4 inhibitor, FUJIFILM Wako Pure Chemical Corporation) and SR1078 (RORα/γ agonist, FUJIFILM Wako Pure Chemical Corporation) were also used for the experiment at 10 mg/kg in 0.5% CMC [12]. Mice were euthanized by rapid decapitation for whole blood samples. […]

PDE4A1A = biological target: T1, PDE4A1A (Homo sapiens, UniProt P27815); assay: PDE enzyme (kinase) assay, PDE4A1A; assay type: biochemical
T1 construct: purchased Eurofins Panlabs Discovery Services Taiwan, Ltd. (contract assay); host or cells: insect Sf9 cells
Procedure: (§1) Enzyme assays for various subtypes of PDE (Table 1 and Figure 4) were conducted by Eurofins Panlabs Discovery Services Taiwan, Ltd. (New Taipei City, Taiwan). In the assays, five or six concentrations of nobiletin over five or six orders of magnitude were examined in experiments conducted in duplicate to determine the IC50 (concentration of nobiletin exerting half-maximal inhibition of control-specific activity). IC50 values were determined by nonlinear least squares regression analysis using MathIQTM (ID Business Solutions Ltd., Woking, UK). FAM-cAMP, FAM-cGMP (0.1 μM), and 100 μM [^3H]cGMP + cGMP were used for the substrate in the human recombinant insect Sf9 cells or Bovine retinal rod outer segments depending on the PDE subtype. The spectrofluorometric quantitation of fluorescein-AMP-IMAP, fluorescein-GMP-IMAP, or [^3H] guanosine was used depending on the PDE subtype. A known […] of each PDE was used as the positive control.
(§2) Figure 4 PDE kinase assays and the acute clock gene expression changes by PDE4 inhibitor or ROR α/γ agonist. (A) Inhibitory effect of nobiletin on PDE4A1, 4B1, and 10A2. Various concentrations of nobiletin (1–100 μM) were used for IC50 determination (Table 1). Values represent the mean of two experiments. Positive controls were rolipram for PDE4A1 and 4B1 and papaverine for PDE10A2. […]

PDE3A = biological target: T2, PDE3A (Homo sapiens, UniProt Q14432); assay: PDE enzyme  assay, PDE3A; assay type: biochemical
T2 construct: purchased Eurofins Panlabs Discovery Services Taiwan, Ltd. (contract assay); host or cells: insect Sf9 cells
Procedure: as §1

PDE4B1 = biological target: T3, PDE4B1 (Homo sapiens, UniProt Q07343); assay: PDE enzyme (kinase) assay, PDE4B1; assay type: biochemical
T3 construct: purchased Eurofins Panlabs Discovery Services Taiwan, Ltd. (contract assay); host or cells: insect Sf9 cells
Procedure: as §1, §2

T1 sequence (P27815 1-647 isoform P27815-4): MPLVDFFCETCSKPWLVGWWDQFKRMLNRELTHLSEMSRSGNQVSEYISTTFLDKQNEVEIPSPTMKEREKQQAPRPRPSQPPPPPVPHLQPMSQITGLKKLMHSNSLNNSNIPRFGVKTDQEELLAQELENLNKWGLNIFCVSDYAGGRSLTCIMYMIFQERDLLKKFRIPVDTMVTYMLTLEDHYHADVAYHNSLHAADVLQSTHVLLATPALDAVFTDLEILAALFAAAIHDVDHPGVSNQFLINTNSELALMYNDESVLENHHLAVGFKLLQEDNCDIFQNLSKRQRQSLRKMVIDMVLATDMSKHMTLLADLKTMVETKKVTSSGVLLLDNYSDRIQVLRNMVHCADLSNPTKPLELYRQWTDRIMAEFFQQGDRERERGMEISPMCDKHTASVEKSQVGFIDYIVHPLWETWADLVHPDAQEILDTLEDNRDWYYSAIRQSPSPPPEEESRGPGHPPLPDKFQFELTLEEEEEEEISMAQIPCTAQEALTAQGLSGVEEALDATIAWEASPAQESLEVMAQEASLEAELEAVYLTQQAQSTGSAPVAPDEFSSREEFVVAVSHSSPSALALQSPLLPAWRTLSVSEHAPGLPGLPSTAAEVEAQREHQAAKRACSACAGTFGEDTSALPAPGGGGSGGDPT
T3 sequence (Q07343 whole entry): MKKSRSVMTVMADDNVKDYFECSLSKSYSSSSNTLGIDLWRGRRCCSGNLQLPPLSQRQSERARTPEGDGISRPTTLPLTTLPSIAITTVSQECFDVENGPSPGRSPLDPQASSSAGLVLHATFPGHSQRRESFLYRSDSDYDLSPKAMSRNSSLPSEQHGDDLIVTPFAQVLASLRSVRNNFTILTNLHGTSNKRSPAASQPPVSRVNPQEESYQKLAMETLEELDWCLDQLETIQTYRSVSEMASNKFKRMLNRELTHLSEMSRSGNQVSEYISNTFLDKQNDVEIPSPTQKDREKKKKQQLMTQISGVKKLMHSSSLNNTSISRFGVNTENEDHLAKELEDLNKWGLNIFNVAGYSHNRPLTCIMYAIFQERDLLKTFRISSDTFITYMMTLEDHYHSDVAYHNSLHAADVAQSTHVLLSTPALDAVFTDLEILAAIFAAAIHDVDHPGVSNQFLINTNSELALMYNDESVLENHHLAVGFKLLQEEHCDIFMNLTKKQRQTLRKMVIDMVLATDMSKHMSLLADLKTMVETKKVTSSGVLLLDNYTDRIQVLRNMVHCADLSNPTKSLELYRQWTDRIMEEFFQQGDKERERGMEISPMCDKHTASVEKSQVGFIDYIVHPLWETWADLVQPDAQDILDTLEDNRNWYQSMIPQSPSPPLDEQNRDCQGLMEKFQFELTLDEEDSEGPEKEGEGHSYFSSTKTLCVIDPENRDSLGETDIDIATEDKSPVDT
T2 sequence (Q14432 whole entry): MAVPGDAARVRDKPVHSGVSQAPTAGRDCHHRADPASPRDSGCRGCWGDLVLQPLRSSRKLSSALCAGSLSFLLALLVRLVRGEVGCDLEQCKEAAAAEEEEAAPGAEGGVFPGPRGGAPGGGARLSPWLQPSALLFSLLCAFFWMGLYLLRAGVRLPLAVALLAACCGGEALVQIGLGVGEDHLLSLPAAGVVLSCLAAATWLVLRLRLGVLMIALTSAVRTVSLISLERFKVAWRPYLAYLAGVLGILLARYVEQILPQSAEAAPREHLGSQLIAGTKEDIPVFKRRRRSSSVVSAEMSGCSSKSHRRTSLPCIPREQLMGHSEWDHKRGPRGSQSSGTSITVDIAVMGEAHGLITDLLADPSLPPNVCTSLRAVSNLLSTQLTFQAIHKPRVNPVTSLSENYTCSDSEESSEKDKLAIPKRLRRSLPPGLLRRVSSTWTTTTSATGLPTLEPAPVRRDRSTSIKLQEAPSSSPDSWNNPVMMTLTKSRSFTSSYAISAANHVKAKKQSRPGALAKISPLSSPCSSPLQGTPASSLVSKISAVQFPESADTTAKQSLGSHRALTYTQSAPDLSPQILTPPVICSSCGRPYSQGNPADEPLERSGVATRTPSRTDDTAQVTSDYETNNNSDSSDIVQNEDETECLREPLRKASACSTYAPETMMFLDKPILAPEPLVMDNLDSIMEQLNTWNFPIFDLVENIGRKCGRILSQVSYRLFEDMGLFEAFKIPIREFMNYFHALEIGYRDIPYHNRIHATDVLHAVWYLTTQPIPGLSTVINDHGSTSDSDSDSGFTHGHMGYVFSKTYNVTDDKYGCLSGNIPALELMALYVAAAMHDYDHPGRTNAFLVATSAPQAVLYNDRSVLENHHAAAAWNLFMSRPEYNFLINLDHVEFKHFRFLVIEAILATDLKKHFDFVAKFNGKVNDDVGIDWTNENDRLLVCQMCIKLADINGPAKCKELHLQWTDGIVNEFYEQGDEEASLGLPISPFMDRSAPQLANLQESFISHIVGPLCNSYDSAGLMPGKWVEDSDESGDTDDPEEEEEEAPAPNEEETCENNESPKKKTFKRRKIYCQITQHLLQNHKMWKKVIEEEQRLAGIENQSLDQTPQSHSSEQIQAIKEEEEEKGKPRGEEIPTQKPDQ

SMILES: COc1ccc(-c2cc(=O)c3c(OC)c(OC)c(OC)c(OC)c3o2)cc1OC [nobiletin]
- Per2 expression (Per2 mRNA): decreased significantly
- pIC50 (PDE4A1A; IC50, PDE4A1A, bound stated in the discussion): ≥ 5.22
- pIC50 (PDE4A1A; IC50 Dose, PDE4A1A, duplicate): 5.28
- pIC50 (PDE3A): 4.80
- pIC50 (PDE4B1; IC50, PDE4B1, bound stated in the discussion): ≥ 5.22
- pIC50 (PDE4B1; IC50 Dose, PDE4B1, duplicate): 5.22
